Laboratory results from PubChem BioAssay AID1645868 (Buhrlage Lab, Dana-Farber Cancer Institute and Novartis …, 2021).
Activity calls are given as the source filed them.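 How the source made its calls: active means maximal percent inhibition of the deubiquitinase OTUD3 of at least 30% across the tested doses; inactive means the rest.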

The compounds below were run against OTU domain-containing protein 3 (Homo sapiens) (UniProt Q5T2D3) (assay: Validation of screening hits, potency titration, in vitro enzymatic, OTU domain-containing protein 3 DUB inhibitors (AID 1645868)). Settings: purified OTUD3, ubiquitin-rhodamine cleavage fluorescence, 2 h.
Chain of OTU domain-containing protein 3 (Homo sapiens) (Q5T2D3 whole entry, looked up, the tested form may be a part): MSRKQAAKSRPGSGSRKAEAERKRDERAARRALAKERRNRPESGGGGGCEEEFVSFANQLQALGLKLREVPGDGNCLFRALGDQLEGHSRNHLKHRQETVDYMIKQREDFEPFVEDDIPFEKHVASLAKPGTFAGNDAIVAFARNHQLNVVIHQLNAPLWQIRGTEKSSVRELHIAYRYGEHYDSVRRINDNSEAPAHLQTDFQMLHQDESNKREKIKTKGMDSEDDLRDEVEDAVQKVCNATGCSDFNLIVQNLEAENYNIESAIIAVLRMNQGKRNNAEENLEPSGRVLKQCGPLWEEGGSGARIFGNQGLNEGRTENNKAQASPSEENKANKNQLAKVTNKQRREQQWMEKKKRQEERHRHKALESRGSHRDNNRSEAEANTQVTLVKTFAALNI

Row | SMILES | IC50
1 | CN(C)Cc1ccc(C(=O)Nc2ccc(-c3nccs3)cc2)cc1 | > 50 µM (inactive)
2 | O=C(Nc1ccc2c(c1)OCCO2)c1cccc2nc3ccccc3nc12 | 32.8 µM
3 | Cc1ccc2nc(NC(=O)CSc3nnc(-c4ccncc4)n3C3CC3)sc2c1 | > 50 µM (inactive)
4 | Cn1c(=O)c2c(ncn2CC(=O)NC2CCCc3ccccc32)n(C)c1=O (stereo unspecified) | > 50 µM (inactive)
5 | Cc1nc2c3ccccc3nc(NCc3ccc4c(c3)OCO4)n2n1 | > 50 µM (inactive)
6 | CC(=O)c1ccccc1NC(=O)COc1ccc(-c2ccc(C#N)cc2)cc1 | > 50 µM (inactive)
7 | COc1cc(COc2ccc3c(C)c(CC(=O)N4CC[C@@]5(O)CCCC[C@H]5C4)c(=O)oc3c2C)cc(OC)c1OC | > 50 µM (inactive)
8 | COc1cc(NC(=O)c2ccc3c(c2)OCO3)ccc1-c1cc2ccccc2oc1=O | > 50 µM (inactive)
9 | CCC/C=C\C#CC/C=C\CCCCCCCC(=O)O | 1.37 µM
10 | COc1ccc(-c2nc(SCC(=O)Nc3ccc(C(C)=O)cc3)n[nH]2)cc1 | 18.3 µM
11 | CC(C)(C)c1cc(CCC(=O)Nc2c3c(nc4c2CCC4)CCCC3)cc(C(C)(C)C)c1O | > 50 µM (inactive)
12 | CO/C=C/C(=O)c1cc2cnc3c(=N)cc(NC(C)=O)c([nH]1)c23 | > 50 µM (inactive)
13 | Cc1ccc2[nH]c(=O)c(CN(CC3COCCO3)S(=O)(=O)c3ccc(F)cc3)cc2c1 (stereo unspecified) | 18.9 µM
14 | Cc1c(CC(=O)Nc2nn[nH]n2)c(=O)oc2cc3c(cc12)CCC1(CCCCC1)O3 | > 50 µM (inactive)
15 | CCC1OC(O)(C(C)C(O)C(C)C2OC(=O)/C(C)=C/C(C)=CC(C)C(O)C(C)C/C(C)=C/C=C/C2OC)CC(OC(=O)/C=C/C(=O)NC2=C(O)CCC2=O)C1C (stereo unspecified) | > 50 µM (inactive)
16 | COCCNC(=O)c1ccc(-c2ccc(N3CCCCC3)nc2)cc1 | 25 µM
17 | Nc1ccccc1SCc1noc(-c2cccs2)n1 | > 50 µM (inactive)
18 | COc1ccc(-c2cc(C(F)F)n3ncc(C(=O)Nc4ccc5c(c4)OCCO5)c3n2)cc1 | > 50 µM (inactive)

Row | SMILES | IC50
19 | Cc1cc(/C=C2/C(=N)N3C(c4ccccc4)=CSC3=NC2=O)c(C)n1-c1ccc2ccccc2c1 | > 50 µM (inactive)
20 | O=C(Cn1c(=O)c2sccc2n(Cc2ccc([N+](=O)[O-])cc2)c1=O)NCCc1ccccc1 | 22.4 µM
21 | Cc1ccc(Cc2nc(-c3ccc(=O)[nH]c3)no2)cc1 | > 50 µM (inactive)
22 | O=C(COC(=O)CCc1ccc(S(=O)(=O)N2CCOCC2)cc1)Nc1ccc2c(c1)OCCO2 | > 50 µM (inactive)
23 | CC(=O)c1ccc(NC(=O)CSc2nc(-c3ccccc3)nc3c2COC(C)(C)C3)cc1 | > 50 µM (inactive)
24 | CN(CCc1ccccc1)c1nccc(N2CCN(C(=O)c3csc(-c4cccnc4)n3)CC2)n1 | > 50 µM (inactive)
25 | O=C(NCc1ccc2c(c1)OCO2)c1[nH]nc2c1COc1ccccc1-2 | 24.8 µM
26 | C[C@H](NC(=O)Cc1ccccc1F)c1nc2cc(-c3ccccc3F)ncn2n1 | > 50 µM (inactive)
27 | CCOc1cc(N2CCOCC2)c(OCC)cc1NC(=O)c1cc(-c2ccncc2)nc2ccccc12 | > 50 µM (inactive)
28 | COc1ccc(Nc2ncc(C(=O)Nc3ccc(Oc4ccccc4)cc3)c3ccccc23)cc1 | > 50 µM (inactive)
29 | CO[C@H]1CC[C@H](O)c2c1oc1c3c4c(c(O)c1c2=O)-c1c(cc2c(Cl)c(C)n(N)c(=O)c2c1O)C[C@@H]4OCO3 | 26.6 µM
30 | Cc1cc(-c2nnc(SCC(=O)Nc3ccc(Br)c(C)c3)n2N)n[nH]1 | 17.3 µM
31 | CC(=O)c1ccc(NC(=O)c2ccc(N3CCCCS3(=O)=O)cc2Cl)cc1 | 37 µM
32 | Cc1cccc(C)c1NC(=O)Cn1c(=O)n(CCCCC(=O)NCc2ccc3c(c2)OCO3)c(=O)c2ccccc21 | 2.82 µM
33 | O=C(CNC(=O)c1cc2ccccc2o1)Nc1ccc2c(c1)OCCO2 | 33.8 µM
34 | Cn1cc(-c2cnc(-c3cccc(F)c3)nc2)cc1C(=O)NCc1cccnc1 | > 50 µM (inactive)
35 | COc1ccc(S(=O)(=O)Nc2ccc(Nc3ccc(-n4cccn4)nn3)cc2)cc1 | > 50 µM (inactive)
36 | Fc1ccc(CSc2nnc(-c3ccccn3)n2Cc2ccco2)cc1 | > 50 µM (inactive)
